Measured values taken from patent US20210032257A1, “(E)-1-(4-(DIMETHYLAMINO)BUT-2-ENOYL)PYRROLIDIN-3-YL 4-((3-ISOPROPYL-5-METHYLPYRAZOLO[1,5-A]PYRIMIDIN-7-YL)AMINO)PIPERIDINE-1-CARBOXYLATE FOR INHIBITING CDK7” (Eli Lilly and Company, priority 2017, published 2021).

Experiments:
[1] = test system: phospho-carboxyl terminal domain (Ser5) in HCT116 cells; test: p-CTD (S5) cell based Acumen assay; conditions: Homo sapiens, HCT-116, 4 hours, read-out: Relative IC50 for pCTD Ser5
Procedure: HCT116 cells (ATCC CCL-247) are cultured in McCoy's 5A Medium Modified media supplemented with 10% FBS, 1% NaPyr and 1% Pen/Strep and plated (prior to becoming 70% confluent) in 96-well flat-bottom plates at a density of 5,000 cells per well in 100 μL volume. The cells are incubated overnight in a cell culture incubator (5% CO2, 95% Relative Humidity (RH) and 37° C.) and allowed to attach to the plate. The following morning, the cells are dosed with compounds. Compound inhibitors are solubilized at 60 μM in culture medium containing 0.6% DMSO. Subsequently compound serial dilutions (1:3) are prepared over a 60 μM to 0.003 μM range. […]
The following day cells are washed three times with PBS (100 μL/well) and incubated with 50 μL/well of secondary antibody (1:2000 dilution, Goat anti-rabbit IgM ALEXA FLUOR™ 488) in PBS for 1 hour at room temperature. […] Plates are analyzed on Acumen on FL2 (mean intensity), and FL3 (total intensity). Fluorescence plates are scanned with ACUMEN EXPLORER™ [Laser-scanning fluorescence microplate cytometer manufactured by TTP LABTECH LTD] to measure anti-phospho-carboxyl terminal domain at Serine 5 (pCTD). […] The IC50 is determined by curve fitting to a four parameter logistic for each output using GENE DATA™.

[2] = test system: A2780 xenograft; test: Xenograft Tumor Model; format: in vivo, mice; conditions: A2780, Ovary, ARID1A; 20 mg/kg PO QDx35
Procedure: (§1) To evaluate in vivo efficacy of a test compound, multiple xenograft tumor models are utilized. Briefly, 5-10×10^6 tumor cells in a 1:1 MATRIGEL® mix (0.2 mL total volume) are injected subcutaneously into the female athymic nude mice (Envigo, Harlan laboratories) for a majority of xenograft tumor models. Alternate mice strains are utilized to establish MDAMB468 (NOD SCID Gamma, Jackson labs), CT26 and EMT6 (BALB/c, Envigo, Harlan Laboratories) xenografts. After allowing tumors to reach a desired size of ˜300-500 mm^3, animals are randomized into groups of 6-8 for efficacy studies. Test compound is administered via oral gavage (PO) at indicated doses and regimens. Tumor growth and body weight are monitored over time to evaluate efficacy and signs of toxicity.
(§2) Test compound is formulated in 5% N-methyl-2-pyrrolidone (NMP) in 1% hydroxyethylcellulose, 0.25% polysorbate 80, 0.05% antifoam in purified water (HEC) and administered by oral gavage (final volume 0.2 mL) at the doses indicated in Table 4. A test compound is formulated on a weekly basis and stored at 4° C. Vehicles are administered to the control groups according the schedules used above using a volume of 0.2 mL per dose. Mice are dosed via oral gavage and tumor samples are collected at termination and stored at −80° C.
(§3) Tumor size and body weight are recorded and analyzed bi-weekly. Blood is collected using DBS (dried blood spot) card 2 hours after dose and at termination. Tumors are collected at study termination, cut into 3 sections and either snap frozen for exposure and protein analysis, or placed in RNAlater® for RNA analysis. Tissue samples are frozen and stored at −80° C.
(§4) Delta T/C % is calculated when the endpoint tumor volume in a treated group is at or above baseline tumor volume. The formula is 100*(T−T0)/(C−C0). Here, T and C are mean endpoint tumor volumes in the treated or control group, respectively. TO and CO are mean baseline tumor volumes in those groups. *: Significant (p<0.05)

[3] = test system: COLO205 xenograft; test: Xenograft Tumor Model; format: in vivo, mice; conditions: COLO205, Colorectal; 20 mg/kg PO QDx28
Procedure: as §1, §2, §3, §4

[4] = test system: CT26 xenograft; test: Xenograft Tumor Model; format: in vivo, mice; conditions: CT26, Colorectal; BALB/c; 20 mg/kg PO QDx24
Procedure: as §1, §2, §3, §4

[5] = test system: EMT6 xenograft; test: Xenograft Tumor Model; format: in vivo, mice; conditions: EMT6, Breast; BALB/c; 20 mg/kg PO QDx28
Procedure: as §1, §2, §3, §4

[6] = test system: H460 xenograft; test: Xenograft Tumor Model; format: in vivo, mice; conditions: H460, Lung, ARID1A; 20 mg/kg PO QDx35
Procedure: as §1, §2, §3, §4

[7] = test system: HCC1806 xenograft; test: Xenograft Tumor Model; format: in vivo, mice; conditions: HCC1806, Breast, KMT2C; 20 mg/kg PO QDx28
Procedure: as §1, §2, §3, §4

[8] = test system: HCT116 xenograft; test: Xenograft Tumor Model; format: in vivo, mice; conditions: HCT116, Colorectal, KMT2C; 25 mg/kg PO QDx21
Procedure: as §1, §2, §3, §4

[9] = test system: MDAMB231 xenograft; test: Xenograft Tumor Model; format: in vivo, mice; conditions: MDAMB231, Breast; 20 mg/kg PO QDx35
Procedure: as §1, §2, §3, §4

[10] = test system: MIAPACA2 xenograft; test: Xenograft Tumor Model; format: in vivo, mice; conditions: MIAPACA2, Pancreatic, ARID1A; 20 mg/kg PO QDx35
Procedure: as §1, §2, §3, §4

[11] = test system: MKN45 xenograft; test: Xenograft Tumor Model; format: in vivo, mice; conditions: MKN45, Stomach, KMT2C; 20 mg/kg PO QDx35
Procedure: as §1, §2, §3, §4

SMILES: Cc1cc(NC2CCN(C(=O)O[C@H]3CCN(C(=O)/C=C/CN(C)C)C3)CC2)n2ncc(C(C)C)c2n1 [Example 1, [(3S)-1-[(E)-4-(dimethylamino)but-2-enoyl]pyrrolidin-3-yl] 4-[(3-isopropyl-5-methyl-pyrazolo[1,5-a]pyrimidin-7-yl)amino]piperidine-1-carboxylate]
- IC50 [1]: 0.14 µM
- Avg. ΔT/C [2]: −41%
- Avg. ΔT/C [3]: −4%
- Avg. ΔT/C [4]: 52%
- Avg. ΔT/C [5]: 17%
- Avg. ΔT/C [6]: 16%
- Avg. ΔT/C [7]: −87%
- Avg. ΔT/C [8]: −17%
- Avg. ΔT/C [9]: −25%
- Avg. ΔT/C [10]: 10%
- Avg. ΔT/C [11]: 57%
